Data published in US20250346582A1, “SPLEEN TYROSINE KINASE INHIBITORS AND METHODS OF USE THEREOF” (THE BOARD OF TRUSTEES OF THE UNIVERSITY OF ILLINOIS, priority 2022, published 2025).

Columns and labels:
[1] = system: phosphorylation of Syk, ERK1/2 and STAT3/5; experiment: Western blot of phosphorylation in entospletinib-resistant MV4-11 cells; format: cell-based; details: 5 μM
Protocol: (§1) Cells were seeded at a density of 3.0×10^5 cells/well prior to incubation with inhibitors. Cells were incubated with 1-5 μM of Syk inhibitors overnight and stimulated with different antibodies: IgG2 for AML cells, IgM for Raji B cells, and OKT3 (Biolegend) for Jurkat cells. The cells were lysed in NP40 lysis buffer (50 mM Tris, pH 7.5, 150 mM NaCl, 1 mM EDTA, 1% NP40, 10% glycerol, 10 mM NaF, 10 mM Na3VO4, and the protease inhibitor cocktail) at 4° C. and the cell debris was removed by centrifugation. Samples were analyzed by SDS-PAGE. Proteins were separated and transferred to Immobilon-P polyvinylidene difluoride membrane (Millipore Sigma). The membrane was blocked with 5% bovine serum albumin for 1 h and incubated overnight at 4° C. with various antibodies (1:1000 dilution for all antibodies). After the unbound antibodies were removed by washing with 0.1% Tris buffer saline with 0.1% Tween20, the membranes were incubated with the horseradish peroxidase secondary antibody (1:5000 dilution) for 1 h at room temperature. The membranes were washed three more times with 0.1% Tris buffer saline with 0.1% Tween20 to remove the unbound horseradish peroxidase secondary antibody before imaging. The chemiluminescence intensity of protein bands in the gel was analyzed and documented by the Azure 500Q Imaging System.
Then the concentration was maintained at 5 μM.

PLCγ2-cSH2 = target: T1, PLCγ2-cSH2 (Homo sapiens, UniProt P16885); experiment: Fluorescence quenching vesicle binding assay, PLCγ2-cSH2; details: Table 4; POPC/POPS/PIP3/dabsyl-PE (67:20:3:10) vesicles (40 μM); read-out: Imax (%)
T1 construct: polyhistidine (N); made in house; host or cells: Escherichia coli BL21 (DE3) pLysS
T1 sequence (P16885 646-735 limits assumed): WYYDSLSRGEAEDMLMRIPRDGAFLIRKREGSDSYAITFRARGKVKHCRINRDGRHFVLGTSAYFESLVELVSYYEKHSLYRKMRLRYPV
Protocol: (§2) The membrane-binding assay is based on fluorescence quenching of EGFP fused to a SH2 domain by a dark quencher containing lipid, dabsyl-PE, incorporated in lipid vesicles. The plate reader assay was performed using the Synergy™ Neo spectrofluorometer at 25° C. Nontreated black polystyrene 96-well plates (Corning) were used. Protein (10-50 nM) with the increasing concentration of vesicles with a given lipid composition in 20 mM Tris buffer, pH 7.4, containing 0.16 M NaCl was added to each row of wells and the EGFP fluorescence emission at 516 nm was measured with excitation set at 485 nm. Z′ factor for the assay system was determined as described^74. Imax and IC50 values of inhibitors were determined using the equation, I=Imax/(1+IC50/[I]) where I and [I] indicate % inhibition and inhibitor concentration, respectively. The average and standard deviation values were obtained from triplicate determinations.
(§3) We also optimized a recently developed fluorescence quenching-based lipid-binding assay^47 for high-throughput screening of these molecules for their inhibitory activity against the PIP3-SH2 interaction. Specifically, we expressed SH2 domains as EGFP-tagged proteins and directly quantified their membrane binding by monitoring the quenching of EGFP fluorescence emission intensity by a dark quencher-containing lipid, N-dimethylaminoazo-benzenesulfonyl-phosphatidylethanolamine (dabsyl-PE), incorporated in the vesicles. We then screened for compounds that inhibited binding of Syk-cSH2, BLNK-SH2, and PLCγ2-cSH2, respectively, to 1-palmitoyl-2-oleoyl-PC (POPC)/1-palmitoyl-2-oleoyl-PS (POPS)/PIP3/dabsyl-PE (67:20:3:10) vesicles while eliminating those that inhibit their non-specific binding to anionic POPC/POPS/dabsyl-PE (70:20:10) vesicles. The quality of the screening system was evaluated using 1% dimethylsulfoxide (DMSO) and 20 μM D-myo-inositol-1,3,4,5-tetraphosphate (IP4) as negative and positive controls, respectively. The clear separation of positive and negative control data and the average Z′-factor of 0.7 supported the robustness of our system for high-throughput screen of PIP3-SH2 interaction inhibitors.

[2] = system: BCR signaling axis (Syk-BLNK-PLCγ2); experiment: Western blot of BCR signaling axis in Raji B lymphocytes; format: cell-based; details: Raji B cells
Protocol: as §1

pZAP70 = target: T2, pZAP70 (Homo sapiens, UniProt P43403); experiment: Western blot inhibition of ZAP70 phosphorylation in Jurkat T cells; format: cell-based; details: for Emax: Immunoblotting, pZAP70, Western blot assay in Jurkat T cells, read-out: Imax (%); for inhibition of ZAP-70 phosphorylation: Jurkat T cells stimulated by OKT3, 5 μM overnight
T2 construct: host or cells: Jurkat T cells, OKT3-stimulated
T2 sequence (P43403 1-619): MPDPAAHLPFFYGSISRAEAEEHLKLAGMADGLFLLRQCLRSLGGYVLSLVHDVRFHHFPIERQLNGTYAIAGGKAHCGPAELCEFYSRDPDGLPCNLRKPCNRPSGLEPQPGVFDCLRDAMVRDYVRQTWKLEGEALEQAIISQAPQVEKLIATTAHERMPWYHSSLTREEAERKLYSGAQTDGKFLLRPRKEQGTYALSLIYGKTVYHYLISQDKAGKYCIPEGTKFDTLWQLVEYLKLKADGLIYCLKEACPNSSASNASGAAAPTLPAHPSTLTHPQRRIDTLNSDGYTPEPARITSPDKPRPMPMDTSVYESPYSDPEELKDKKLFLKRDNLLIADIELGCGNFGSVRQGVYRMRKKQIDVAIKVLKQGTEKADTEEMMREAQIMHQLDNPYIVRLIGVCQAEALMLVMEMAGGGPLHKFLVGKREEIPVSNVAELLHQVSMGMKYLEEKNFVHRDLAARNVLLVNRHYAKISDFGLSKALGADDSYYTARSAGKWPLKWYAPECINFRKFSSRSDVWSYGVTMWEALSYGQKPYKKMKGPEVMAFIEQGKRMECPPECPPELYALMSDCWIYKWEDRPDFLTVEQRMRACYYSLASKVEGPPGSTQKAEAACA
Protocol: (a) Cellular efficacy of WC35, WC36, and WC38 was determined by dose-dependent inhibition of Syk phosphorylation in Raji B cells. (b) Imax and IC50 values were determined by non-linear least-squares analysis of data using the equation: […] Each data represents average ±s.d. from triplicate measurements. […] Jurkat T cells were stimulated by OKT3. Cells were seeded at a density of 3.0×10^5 cells/well prior to incubation with inhibitors. […] IgG2 for AML cells, IgM for Raji B cells, and OKT3 (Biolegend) for Jurkat cells. […] Samples were analyzed by SDS-PAGE. Proteins were separated and transferred to Immobilon-P polyvinylidene difluoride membrane (Millipore Sigma). […] The chemiluminescence intensity of protein bands in the gel was analyzed and documented by the Azure […] Imaging System.

ZAP70-cSH2 = target: T3, ZAP70-cSH2 (Homo sapiens, UniProt P43403); experiment: Fluorescence quenching vesicle binding assay, ZAP70-cSH2; details: for Emax: read-out: Imax (%); for inhibition of ZAP-70-cSH2 binding to POPC/POPS/PIP3/dabsyl-PE vesicles: in words
T3 construct: polyhistidine (N); made in house; host or cells: Escherichia coli BL21 (DE3) pLysS
T3 sequence (P43403 163-254 limits assumed): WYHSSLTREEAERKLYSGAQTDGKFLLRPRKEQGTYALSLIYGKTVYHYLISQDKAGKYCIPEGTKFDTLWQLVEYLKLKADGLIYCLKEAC
Protocol: as §2, §3

Syk-cSH2 = target: T4, Syk-cSH2 (Homo sapiens, UniProt P43405); experiment: Fluorescence quenching vesicle binding assay, Syk-cSH2; details: for IC50: read-out: IC50
T4 construct: polyhistidine (N); made in house; host or cells: Escherichia coli BL21 (DE3) pLysS
Protocol: as §2, §3

[3] = Table 4, POPC/POPS/PIP3/dabsyl-PE (67:20:3:10) vesicles (40 μM)
[4] = Table 3, efficacy determined by the vesicle binding assay

Emax (PLCγ2-cSH2) | Emax (pZAP70) | Emax (ZAP70-cSH2; [3]) | inhibition of ZAP-70-cSH2 binding to POPC/POPS/PIP3/dabsyl-PE vesicles (ZAP70-cSH2) | Imax (%) (Syk-cSH2; [4]) | IC50 (Syk-cSH2; [4]) | Imax (%) (Syk-cSH2; [3]) | IC50 (ZAP70-cSH2; [3]) | SMILES | inhibition of phosphorylation of Syk, ERK1/2 and STAT3/5 [1] | effect on phosphorylation of BCR signaling proteins (Syk, BLNK, PLCγ2) [2] | inhibition of ZAP-70 phosphorylation (pZAP70)
< 10% | < 10% | < 20% | did not inhibit binding | Imax (%) = 50 | 150 nM | 50 ± 5% |  | [N-]=[N+]=C(C(=O)OC1CCCCC1)C(Nc1ncccn1)c1ccco1 (racemic) [WC35, Cyclohexyl 2-diazo-3-(furan-2-yl)-3-(pyrimidin-2-ylamino)propanoate] | significantly less active than WC36 | effectively suppressed phosphorylation of all BCR signaling proteins | did not inhibit phosphorylation and activation of ZAP-70
< 10% | < 10% | < 10% | did not inhibit binding | Imax (%) = 60 | 40 nM | 60 ± 5% |  | [N-]=[N+]=C(C(=O)OC1CCCCC1)C(Nc1ncccn1)c1c[nH]c2ccccc12 (racemic) [WC36, Cyclohexyl 2-diazo-3-(1H-indol-3-yl)-3-(pyrimidin-2-ylamino)propanoate] | potently suppressed the phosphorylation and activation of Syk, ERK1/2, and STAT3/5 | effectively suppressed phosphorylation of all BCR signaling proteins | did not inhibit phosphorylation and activation of ZAP-70
< 10% | < 10% | 30 ± 5% | did not inhibit binding | Imax (%) = 70 | 120 nM | 70 ± 5% | 340 ± 20 nM | [N-]=[N+]=C(C(=O)OC1CCCCC1)C(Nc1ncccn1)c1ccc[nH]1 (racemic) [WC38, Cyclohexyl 2-diazo-3-(pyrimidin-2-ylamino)-3-(1H-pyrrol-2-yl)propanoate] | significantly less active than WC36 | effectively suppressed phosphorylation of all BCR signaling proteins | did not inhibit phosphorylation and activation of ZAP-70
